Source: patent publication US5677293A, “16 unsaturated C17 heterocyclic steroids useful as steroid C17-20 lyase inhibitors” (Merrell Pharmaceuticals Inc., priority 1996, dated 1997)

Experiments:
Format in all cases: biochemical
[1] = target: T1, Cynomolgus Monkey Testicular C17-20 Lyase (Macaca fascicularis, UniProt Q2XVA1); experiment: Screen for time-dependent inhibition / inhibition of cynomolgus monkey testicular C17-20 lyase (microsomal preparation)
T1 construct: Microsomes are isolated from human or cynomolgus monkey tissue; from tissue; host or cells: cynomolgus monkey testis, microsomes
T1 sequence (Q2XVA1 1-508): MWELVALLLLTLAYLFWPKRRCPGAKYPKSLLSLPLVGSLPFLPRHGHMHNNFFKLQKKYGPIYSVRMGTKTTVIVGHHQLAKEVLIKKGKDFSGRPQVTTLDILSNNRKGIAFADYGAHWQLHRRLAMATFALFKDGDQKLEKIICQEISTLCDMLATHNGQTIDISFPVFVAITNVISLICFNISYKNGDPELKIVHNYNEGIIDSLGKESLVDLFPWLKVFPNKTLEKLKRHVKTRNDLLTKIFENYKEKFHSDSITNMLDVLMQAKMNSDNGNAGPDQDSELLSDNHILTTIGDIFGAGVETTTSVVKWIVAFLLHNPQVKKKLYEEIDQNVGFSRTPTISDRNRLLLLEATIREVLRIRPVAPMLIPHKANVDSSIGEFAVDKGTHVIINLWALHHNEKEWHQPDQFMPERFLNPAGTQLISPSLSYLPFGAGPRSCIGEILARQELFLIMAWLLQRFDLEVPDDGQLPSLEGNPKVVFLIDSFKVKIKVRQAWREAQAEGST
Procedure: (§1) Utilizing an in vitro assay, the activity of the compounds of formulas (I) and (II) as inhibitors of steroid C17-20 lyase are established using microsomal preparations of the enzyme from human or cynomolgus monkey testicular tissue. Human testes were acquired from therapeutic orchiectomies. Microsomes are isolated from human or cynomolgus monkey tissue. The compound to be tested is dissolved in dimethyl sulfoxide and diluted in 0.05M potassium phosphate buffer, pH 7.4, to give the desired concentrations of test compound. Assays contain an NADPH regenerating system comprised of 1 mM NADPH, 5 mM glucose-6-phosphate, 1 IU/mL glucose-6-phosphate dehydrogenase and microsomal protein in a total volume of 0.2 mL. Control assays contain all components, including dimethyl sulfoxide, but no test compound. All assays are performed in duplicate. For determination of time dependent C17-20 lyase inactivation, the test compound is incubated with 20 to 62 μg/mL microsomal protein, buffer and the NADPH regenerating system described above at 34° C. for 0 or 40 minutes. Aliquots of 180 μL are then removed and assayed for enzyme activity by addition to 7-^3 H-17α-hydroxypregnenolone (11.2 mCi/mmole; 0.2 μCi per assay) plus unlabeled 17α-hydroxypregnenolone to give a total substrate concentration of 1.0 μM or 0.3 μM per assay and are subsequently incubated at 34° C. for 6 minutes. For determination of reversible inhibition by the test compound, the reaction is initiated by the addition of substrate, 7-^3 H-17α-hydroxypregnenolone (11.2 mCi/mmole; 0.20 μCi per assay) plus unlabeled 17α-hydroxypregnenolone to yield a final concentration of 0.3 μM (=Km), to the other assay components. The complete assay is incubated at 34° C. for 6 minutes. Each assay is terminated by addition of 5 mL of chloroform/methanol (2:1). Carrier steroids representing substrates and products (17α-hydroxypregnenolone, dehydroepiandrosterone, and androst-5-ene-3β,17β-diol and 0.8 mL of distilled, deionized water are also added at this time. The steroids are extracted by the method of Moore and Wilson (Methods in Enzymol., eds. O'Malley, B. W. and Hardman, J. G. 36, 1975, pp.466-474). The organic phase containing the steroids is evaporated using nitrogen gas, the residue is dissolved in 18% tetrahydrofuran (v/v) in hexane and the steroids are separated by HPLC on an Si60 (5 μm) column (250×4 mm) using a gradient of 18-22% tetrahydrofuran (v/v) in hexane. Radioactivity in the steroid peaks is measured using a Radiometric Model HS or Model A515 Flo-One detector.
(§2) The enzyme activity for each assay is calculated from the percent conversion of substrate to products, and the results are expressed as percent inhibition of control.

[2] = target: T1, Cynomolgus Monkey Testicular C17-20 Lyase; experiment: Screen for inhibition of cynomolgus monkey testicular C17-20 lyase by compounds of formula (II)
Procedure: as §1, §2

[3] = target: T2, Human Testicular C17-20 Lyase (Homo sapiens, UniProt P05093); experiment: Screen for time-dependent inhibition of human testicular C17-20 lyase (microsomal preparation)
T2 construct: Microsomes are isolated from human or cynomolgus monkey tissue; from tissue; host or cells: human testes from therapeutic orchiectomies, microsomes
T2 sequence (P05093 1-508): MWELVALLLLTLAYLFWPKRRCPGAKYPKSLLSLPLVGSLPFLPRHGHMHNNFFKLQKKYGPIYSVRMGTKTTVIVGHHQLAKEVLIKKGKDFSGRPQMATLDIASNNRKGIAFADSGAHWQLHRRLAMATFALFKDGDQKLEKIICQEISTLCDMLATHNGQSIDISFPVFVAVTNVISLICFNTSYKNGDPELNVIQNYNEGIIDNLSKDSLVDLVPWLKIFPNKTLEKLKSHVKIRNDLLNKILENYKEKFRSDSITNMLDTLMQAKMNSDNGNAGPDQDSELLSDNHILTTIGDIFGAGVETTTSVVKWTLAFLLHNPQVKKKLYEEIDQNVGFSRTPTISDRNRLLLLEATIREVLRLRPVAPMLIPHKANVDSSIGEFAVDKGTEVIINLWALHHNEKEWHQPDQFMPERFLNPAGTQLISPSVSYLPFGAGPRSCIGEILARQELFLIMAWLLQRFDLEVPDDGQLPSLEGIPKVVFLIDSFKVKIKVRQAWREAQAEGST
Procedure: as §1, §2

## C[C@]12CCC(=O)CC1=CC[C@@H]1[C@@H]2CC[C@]2(C)C(c3csc(N)n3)=CC[C@@H]12 [17-(2-amino-4-thiazolyl)-androsta-5,16-dien-3-one]
[1]; preincubation 0 min
  inhibition at 1 µM: 66%
  inhibition at 10 µM: 92%

## C[C@]12CC[C@H](O)CC1=CC[C@@H]1[C@@H]2CC[C@]2(C)C(c3ccco3)=CC[C@@H]12 [17-(2-furanyl)androsta-5,16-dien-3β-ol, (3β)-17-(2-furanyl)-androsta-5,16-dien-3-ol]
[2]
  inhibition at 0.1 µM: 10%
  inhibition at 1 µM: 72%

## C[C@]12CC[C@H](O)CC1=CC[C@@H]1[C@@H]2CC[C@]2(C)C(c3cccs3)=CC[C@@H]12 [17-(2-thienyl)androsta-5,16-dien-3β-ol, (3β)-17-(2-thienyl)-androsta-5,16-dien-3-ol]
[2]
  inhibition at 0.1 µM: 43%
  inhibition at 1 µM: 75%

## C[C@]12CC[C@H](O)CC1=CC[C@@H]1[C@@H]2CC[C@]2(C)C(c3ccoc3)=CC[C@@H]12 [17-(3-furanyl)androsta-5,16-dien-3β-ol, (3β)-17-(3-furanyl)-androsta-5,16-dien-3-ol]
[2]
  inhibition at 0.1 µM: 53%
  inhibition at 1 µM: 91%

## C[C@]12CC[C@H](O)CC1=CC[C@@H]1[C@@H]2CC[C@]2(C)C(c3ccsc3)=CC[C@@H]12 [17-(3-thienyl)androsta-5,16-dien-3β-ol, (3β)-17-(3-thienyl)-androsta-5,16-dien-3-ol]
[2]
  inhibition at 0.1 µM: 21%
  inhibition at 1 µM: 42%

## C[C@]12CC[C@H](O)CC1=CC[C@@H]1[C@@H]2CC[C@]2(C)C(c3csc(N)n3)=CC[C@@H]12 [(3β)-17-(2-amino-4-thiazolyl)-androsta-5,16-dien-3-ol.HBr.CH3 CH2 OH]
[3]; preincubation 0 min
  inhibition at 1 µM: 44%
  inhibition at 10 µM: 62%
[3]; preincubation 40 min
  inhibition at 1 µM: 32%
  inhibition at 10 µM: 29%

## CNc1nc(C2=CC[C@H]3[C@@H]4CC=C5C[C@@H](O)CC[C@]5(C)[C@H]4CC[C@]23C)cs1 [(3β)-17-[2-(methylamino)-4-thiazolyl]-androsta-5,16-dien-3-ol.HBr]
[1]; preincubation 0 min
  inhibition at 1 µM: 28%
  inhibition at 10 µM: 40%
[1]; preincubation 40 min
  inhibition at 1 µM: 26%
  inhibition at 10 µM: 80%
